Experimental data as given in EP3494999A1, “PSMA LIGANDS FOR IMAGING AND ENDORADIOTHERAPY” (Technische Universität München, priority 2017, dated 2019).
Numbered stars: 1 amine (or outer) side, 2 acyl side, 3 side chain; on linkers, the order of the positions; unused ones are H or OH. Square brackets hold non-standard residues; d marks the D form. Side chains are listed from the residue outwards. Peptide text beside a SMILES is read from it. * marks the point of attachment. X2 = O=C(O)CC[C@H](NC(=O)N[C@@H](CCC(=O)N[C@H](CCCN*)C(=O)O)C(=O)O)C(=O)O; X1 = O=C(O)CC[C@H](NC(=O)N[C@@H](CCCCNC(=O)CCCCCCC(=O)*)C(=O)O)C(=O)O; DOTAGA = O=C(O)CN1CCN(CC(=O)O)CCN(C(CCC(=O)*)C(=O)O)CCN(CC(=O)O)CC1; dPhe(4-NH2) = Nc1ccc(C[C@@H](N)C(=O)O)cc1; Phe(4-NH2) = Nc1ccc(C[C@H](N)C(=O)O)cc1; d2Nal = N[C@H](Cc1ccc2ccccc2c1)C(=O)O; Suc = O=C(CCC(=O)[*:2])[*:1]

How the values were obtained:
[1] = molecular target: T1, PSMA (Homo sapiens, UniProt Q04609); assay: Internalization of radiolabeled PSMA inhibitors into cells (PMPA blockade); assay type: cell-based; design: endogenous in cells; LNCaP is named only for the xenografts; conditions: 177Lu-labeled inhibitors, 37°C; reference basis of the % not stated
Method: The ^177Lu-labeled compounds, for in vitro studies, were prepared as previously described (Sosabowski, J.K. and S.J. Mather, Conjugation of DOTA-like chelating agents to peptides and radiolabeling with trivalent metallic isotopes. Nat. Protocols, 2006. 1(2): p. 972-976) with minor modifications and used without further purification. In short, to a reaction volume of 10 µL 1.0 M NH4OAc buffer pH = 5.9 was added 0.75 to 1.0 nmol tracer (7.5 to 10 µL), 10 to 40 MBq ^177LuCl3 (Specific Activity (AS) > 3000 GBq/mg, 740 MBq/mL, 0.04 M HCl, ITG, Garching, Germany) and finally filled up to 100 µL with trace-pure Water (Merck, Darmstadt, Germany). The reaction mixture was heated for 30 min at 95°C and the radiochemical purity was determined using Radio-TLC.
[…] Each well was treated with either 25 µL of either DMEM-F12 (5% BSA) or a 100 µM PMPA solution for blockade. Next, 25 µL of the respective ^68Ga-and ^177Lu-labeled PSMA inhibitors (2.0 nM / 5.0 nM) was added and the cells incubated at 37°C for 5, 15, 30 and 60 min, respectively. The experiment was terminated by placing the 24-well plate on ice for 3 min and consecutive removal of the medium. Each well was rinsed with 250 µL HBSS and the fractions from these first two steps combined, representing the amount of free radioligand. Removal of surface bound activity was accomplished by incubation of the cells with 250 µL of ice-cold PMPA (10 µM in PBS) solution for 5 min and rinsed again with another 250 µL of ice-cold PBS. The internalized activity was determined by incubation of the cells in 250 µL 1.0 M NaOH and the combination with the fraction of a subsequent wash step with 250 µL 1.0 M NaOH. Each experiment (control and blockade) was performed in triplicate for each time point. Free, surface bound and internalized activity was quantified in a γ-counter.

[2] = assay type: physicochemical
Method: To a volume of 500 µL n-octanol, 0.5 to 1.0 MBq of the radiolabeled PSMA inhibitor in 500 µL PBS (pH = 7.4) was added and rigorously vortexted for 3 min (n = 6). For quantitative phase separation, the mixture was centrifuged at 6,000 g for 5 min (Biofuge 15, Heraus Sepatech, Osterode, Germany).

[3] = molecular target: T1, PSMA; assay: Determination of IC50: competitive binding against ([125I]I-BA)KuE on cells; design: endogenous in cells; LNCaP is named only for the xenografts; conditions: natLu complexes; displacement of ([125I]I-BA)KuE, 60 min on ice, HBSS (1% BSA)
Method: The corresponding ^natLu^III-complexes were prepared from a 2 mM aqueous solution of the PSMA inhibitor with a 2.5 molar excess of LuCl3 (20 mM solution), heated to 95 °C for 30 min. After cooling, the ^natLu^III-chelate formation was confirmed using HPLC and MS. […] Calculated monoisotopic mass (C67H92N11O23 Lu) = 1,593.6 found: m/z = 1,595.0 [M+H]^+, 798.2 [M+2H]^2+. [^natLu]DOTAGA-(4-NH2)f-y-nal-k-KuE ([^natLu]PSMA-5): HPLC (10 to 60% B in 15 min.): tR = 9.0 min K' = 3.5. Calculated monoisotopic mass (C76H102N13O24 Lu) = 1,755.7 found: m/z = 1,756.4 [M+H]^+, 879.0 [M+2H]^2+. [^natLu]DOTAGA-(4-NH2)F-y-nal-k-KuE ([^natLu]PSMA-6): HPLC (10 to 60% B in 15 min.): tR = 9.1 min K' = 3.6. Calculated monoisotopic mass (C76H102N13O24 Lu) = 1,755.7 found: m/z = 1,756.6 [M+H]^+, 878.8 [M+2H]^2+. [^natLu]DOTAGA-y-nal-k(Suc-(HO-δ-orn-γ-EuE))-OH ([^natLu]PSMA-7): HPLC (10 to 60 % B in 15 min): tR = 7.8 min K' = 2.9. Calculated monoisotopic mass (C67H89N12O26 Lu): 1,652.5 found: m/z = 1,653.9 [M+H]^+. [^natLu]DOTAGA-(4-NH2)f-y-nal-k(Suc-(HO-δ-orn-γ-EuE))-OH ([^natLu]PSMA-8): HPLC (10 to 60 % B in 15 min): tR = 7.3 min K' = 2.7. Calculated monoisotopic mass (C67H99N14O27Lu): 1,814.6 found: m/z = 1,815.9 [M+H]^+, 908.3 [M+2H]^2+. [^natLu]DOTAGA-(4-NH2)F-y-nal-k(Suc-(HO-δ-orn-γ-EuE))-OH ([^natLu]PSMA-9): HPLC (10 to 60 % B in 15 min): tR = 7.2 min K' = 2.6. Calculated monoisotopic mass (C67H99N14O27Lu): 1,814.6 found: m/z = 1,815.6 [M+H]^+, 908.3 [M+2H]^2+. [^natLu]DOTAGA-y-nal-k(Glut-(l-f)-KuE) ([^natLu]PSMA-10): HPLC (25 to 55% B in 15 min): tR = 10.6 min K' = 4.9. Calculated monoisotopic mass (C73H94IN12O24Lu): 1,825.5 found: m/z = 1,826.5 [M+H]^+, 913.8 [M+2H]^2+. [^natLu]DOTAGA-(4-NH2)f-y-nal-k(Glut-(l-f)-KuE) ([^natLu]PSMA-11): HPLC (10 to 60% B in 20 min): tR = 9.7 min K' = 3.9. Calculated monoisotopic mass (C82H104IN14O25Lu): 1,986.6 found: m/z = 1,987.5 [M+H]^+, 994.3 [M+2H]^2+.
The reaction solution was incubated for 10 min at RT, loaded on a cartridge and rinsed with 10 mL water (C18 Sep Pak Plus cartridge, preconditioned with 10 mL MeOH and 10 mL water). After elution with 2.0 mL of a 1:1 mix (v/v) of EtOH/MeCN, the radioactive solution was evaporated to dryness under a gentle nitrogen stream and treated with 200 µL TFA for 30 min with subsequent evaporation of TFA.
After removal of the culture medium, the cells were treated once with 500 µL of HBSS (Hank's balanced salt solution, Biochrom, Berlin, Germany, with addition of 1% bovine serum albumin (BSA)) and left 15 min on ice for equilibration in 200 µL HBSS (1% BSA). […] All experiments were performed at least three times for each concentration. After 60 min incubation on ice, the experiment was terminated by removal of the medium and consecutive rinsing with 200 µL of HBSS. The media of both steps were combined in one fraction and represent the amount of free radioligand. Afterwards, the cells were lysed with 250 µL of 1.0 M NaOH and united with the 200 µL HBSS of the following wash step. Quantification of bound and free radioligand was accomplished in a γ-counter.

[4] = molecular target: T2, human serum albumin (Homo sapiens, UniProt P02768); assay: Literature HSA binding of the reference substances used to calibrate the HSA column; conditions: logarithmic K of human serum albumin binding, from the literature HSA%
Method: (§1) The mobile phase was freshly prepared for each experiment and only used for one day. The column was kept at room temperature and each run was stopped after detection of the signal to reduce the acquisition time. All substances were dissolved in a 0.5mg/ml concentration in 50% 2-Propanol and 50% 50mM pH 6.9 ammonium acetate buffer. […] All nine reference substances were injected consecutively to establish a non-linear regression with OriginPro 2016G. […] Table 1: Reference substances used for the calibration of the HSA-column.

[5] = molecular target: T2, human serum albumin; conditions: literature value of human serum albumin binding (Valko et al. or Yamazaki et al.); cited from earlier work
[6] = molecular target: T3, human serum albumin (HSA) (Homo sapiens, UniProt P02768); assay type: in vitro ADME
T3 construct: purchased Daicel Chemical Industries, purchased from Chiral Technologies Europe (France)
Source text: The Fmoc-(9-fluorenylmethoxycarbonyl-) and all other protected amino acid analogs were purchased from Bachem (Bubendorf, Switzerland) or Iris Biotech (Marktredwitz, Germany). […] The tritylchloride polystyrene (TCP) resin was obtained from PepChem (Tubingen, Germany). Chematech (Dijon, France) delivered the chelator DOTAGA-anhydride. All necessary solvents and other organic reagents were purchased from either Alfa Aesar (Karlsruhe, Germany), Sigma-Aldrich (Munich, Germany) or VWR (Darmstadt, Germany). Solid phase synthesis of the peptides was carried out by manual operation using an Intelli-Mixer syringe shaker (Neolab, Heidelberg, Germany). […] Analysis of the peptides was performed by applying different gradients of 0.1% (v/v) trifluoroacetic acid (TFA) in H2O (solvent A) and 0.1% TFA (v/v) in acetonitrile (MeCN) (solvent B) with a constant flow of 1 mL/min (specific gradients are cited in the text). […] Human serum albumin (HSA) binding was determined using a Chiralpak HSA 50 x 3 mm 5µm Analytical Column connected to a Chiralpak HSA 10 x 3 mm 5µm Guard Cartridge (Daicel Chemical Industries) purchased from Chiral Technologies Europe (France). Nonlinear regression for the HSA binding was performed using OriginPro 2016G. Both retention times tR as well as the capacity factors K' are cited in the text. […] Radioactivity was detected through connection of the outlet of the UV-photometer to a Nal(TI) well-type scintillation counter from EG&G Ortec (Munich, Germany). […] ESI-mass spectra were acquired on an expression^L CMS mass spectrometer (Advion Ltd., Harlow, UK) and on a Varian 500-MS IT mass spectrometer (Agilent Technologies, Santa Clara, USA). For the HSA binding experiment a Chiralpak HSA 50 x 3 mm 5µm Analytical Column, (Daicel Chemical Industries, LTD) connected to a Chiralpak HSA 10 x 3 mm 5µm Guard Cartridge (Daicel Chemical Industries; Chiral Technologies Europe) was used.
as §1

T1 sequence (Q04609 whole entry): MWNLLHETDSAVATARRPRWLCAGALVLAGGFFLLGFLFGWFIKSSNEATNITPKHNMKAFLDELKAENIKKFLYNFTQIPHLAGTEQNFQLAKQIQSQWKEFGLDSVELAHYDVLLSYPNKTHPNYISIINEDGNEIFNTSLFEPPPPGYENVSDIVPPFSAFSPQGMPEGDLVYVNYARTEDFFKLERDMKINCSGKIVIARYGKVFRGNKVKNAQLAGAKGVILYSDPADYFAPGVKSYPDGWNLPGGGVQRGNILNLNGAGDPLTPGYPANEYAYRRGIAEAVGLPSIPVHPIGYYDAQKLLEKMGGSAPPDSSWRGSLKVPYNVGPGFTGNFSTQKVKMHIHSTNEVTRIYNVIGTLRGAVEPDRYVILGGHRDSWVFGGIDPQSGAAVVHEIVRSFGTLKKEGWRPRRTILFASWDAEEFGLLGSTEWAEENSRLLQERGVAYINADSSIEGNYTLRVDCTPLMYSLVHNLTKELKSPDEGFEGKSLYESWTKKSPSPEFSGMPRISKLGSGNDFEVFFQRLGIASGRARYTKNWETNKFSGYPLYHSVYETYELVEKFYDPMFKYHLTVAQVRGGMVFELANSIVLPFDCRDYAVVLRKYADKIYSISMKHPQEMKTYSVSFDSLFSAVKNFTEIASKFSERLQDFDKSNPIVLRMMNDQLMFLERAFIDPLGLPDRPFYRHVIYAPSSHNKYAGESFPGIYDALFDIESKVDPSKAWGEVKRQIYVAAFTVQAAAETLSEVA
T2 sequence (P02768 25-609): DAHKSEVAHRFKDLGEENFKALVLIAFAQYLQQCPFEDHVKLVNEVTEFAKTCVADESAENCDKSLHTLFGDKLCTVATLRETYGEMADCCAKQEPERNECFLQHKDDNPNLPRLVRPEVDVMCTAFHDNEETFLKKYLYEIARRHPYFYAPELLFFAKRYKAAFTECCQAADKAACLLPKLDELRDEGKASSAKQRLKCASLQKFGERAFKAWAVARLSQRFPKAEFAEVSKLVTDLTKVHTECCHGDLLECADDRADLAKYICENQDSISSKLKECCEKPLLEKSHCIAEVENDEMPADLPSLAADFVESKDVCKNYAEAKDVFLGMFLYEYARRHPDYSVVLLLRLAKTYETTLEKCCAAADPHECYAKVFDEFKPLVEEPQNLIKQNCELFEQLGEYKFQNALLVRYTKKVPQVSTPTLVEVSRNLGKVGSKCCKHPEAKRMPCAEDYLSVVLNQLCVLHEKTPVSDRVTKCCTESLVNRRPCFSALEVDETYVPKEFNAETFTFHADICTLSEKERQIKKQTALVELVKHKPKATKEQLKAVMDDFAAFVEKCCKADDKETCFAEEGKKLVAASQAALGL
T3 sequence (P02768 25-609): as above

Row | Compound | Internalization [%] [1] [%] | IC50 [3] [nM] | logP [2] | Log K HSA [4] | Lit. HSA% [5] [%] | HSA [%] [6] [%]
1 | Oc1ccccc1 [Phenol] | – | – | – | -0.59 | 20.69 | –
2 | CCCN(CCC)S(=O)(=O)c1ccc(C(=O)O)cc1 [Probenecid] | – | – | – | – | 95.00 | –
3 | Nc1ccccc1 [Aniline] | – | – | – | -0.79 | 14.06 | –
4 | O=C(O)CC[C@H](NC(=O)N[C@@H](CCCCNC(=O)CCCCCCC(=O)NCCCC[C@@H](NC(=O)[C@@H](Cc1ccccc1)NC(=O)[C@@H](Cc1ccc(O)c(I)c1)NC(=O)CCC(C(=O)O)N1CCN(CC(=O)O)CCN(CC(=O)O)CCN(CC(=O)O)CC1)C(=O)O)C(=O)O)C(=O)O (stereo partly drawn) [[^nat/177Lu]PSMA-1, DOTAGA-(l-y)-f-k-KuE, metal not drawn, reference compound] | 75.5 ± 1.6 | – | -4.12 ± 0.1 | – | – | 78.6
5 | O=C(O)c1ccccc1 [Benzoic Acid] | – | – | – | -0.29 | 34.27 | –

Now from value to molecule, other results behind:

Row | Internalization [%] [1] [%] | IC50 [3] [nM] | Compound | logP [2] | Log K HSA [4] | Lit. HSA% [5] [%] | HSA [%] [6] [%]
6 | 207.3 ± 8.5 | 2.5 ± 0.6 | Nc1ccc(C[C@@H](NC(=O)CCC(C(=O)O)N2CCN(CC(=O)O)CCN(CC(=O)O)CCN(CC(=O)O)CC2)C(=O)N[C@H](Cc2ccc(O)cc2)C(=O)N[C@H](Cc2ccc3ccccc3c2)C(=O)N[C@H](CCCCNC(=O)CCC(=O)NCCC[C@@H](NC(=O)CC[C@H](NC(=O)N[C@@H](CCC(=O)O)C(=O)O)C(=O)O)C(=O)O)C(=O)O)cc1 (some centres unmarked) [[^nat/177Lu]PSMA-8, DOTAGA-(4-NH2)f-y-nal-k(Suc-(HO-δ-orn-γ-EuE))-OH, metal not drawn] ({DOTAGA}-[dPhe(4-NH2)][dY][d2Nal][dK]([Suc-X2])-OH) | -4.02 ± 0,25 | – | – | –
7 | 111.3 ± 11.1 | 5.8 ± 1 | Nc1ccc(C[C@@H](NC(=O)CCC(C(=O)O)N2CCN(CC(=O)O)CCN(CC(=O)O)CCN(CC(=O)O)CC2)C(=O)N[C@H](Cc2ccc(O)cc2)C(=O)N[C@H](Cc2ccc3ccccc3c2)C(=O)N[C@H](CCCCNC(=O)CCCCCCC(=O)NCCCC[C@H](NC(=O)N[C@@H](CCC(=O)O)C(=O)O)C(=O)O)C(=O)O)cc1 (some centres unmarked) [[^nat/177Lu]PSMA-5, DOTAGA-(4-NH2)f-y-nal-k-KuE, metal not drawn] ({DOTAGA}-[dPhe(4-NH2)][dY][d2Nal][dK](X1)-OH) | -4.11 ± 0.06 | – | – | –
8 | – | 2.5 ± 0.6 | Nc1ccc(C[C@H](NC(=O)CCC(C(=O)O)N2CCN(CC(=O)O)CCN(CC(=O)O)CCN(CC(=O)O)CC2)C(=O)N[C@H](Cc2ccc(O)cc2)C(=O)N[C@H](Cc2ccc3ccccc3c2)C(=O)N[C@H](CCCCNC(=O)CCC(=O)NCCC[C@@H](NC(=O)CC[C@H](NC(=O)N[C@@H](CCC(=O)O)C(=O)O)C(=O)O)C(=O)O)C(=O)O)cc1 (some centres unmarked) [[^nat/177Lu]PSMA-9, DOTAGA-(4-NH2)F-y-nal-k(Suc-(HO-δ-orn-γ-EuE))-OH, metal not drawn] ({DOTAGA}-[Phe(4-NH2)][dY][d2Nal][dK]([Suc-X2])-OH) | -4.01 ± 0.11 | – | – | –
9 | 216.2 ± 9.2 | 3.1 ± 1 | O=C(O)CC[C@H](NC(=O)N[C@@H](CCC(=O)N[C@H](CCCNC(=O)CCC(=O)NCCCC[C@@H](NC(=O)[C@@H](Cc1ccc2ccccc2c1)NC(=O)[C@@H](Cc1ccc(O)cc1)NC(=O)CCC(C(=O)O)N1CCN(CC(=O)O)CCN(CC(=O)O)CCN(CC(=O)O)CC1)C(=O)O)C(=O)O)C(=O)O)C(=O)O (some centres unmarked) [[^nat/177Lu]PSMA-7, DOTAGA-y-nal-k(Suc-(HO-δ-orn-γ-EuE))-OH, metal not drawn, reference compound] | – | – | – | –
